Laboratory results published in ChEMBL document CHEMBL1201862, “PubChem BioAssay data set” (2004).
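48-hour exposure; five concentrations; linearly interpolated endpoints. GI50: concentration for 50% inhibition of growth.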 Active and inactive are the calls of the source. Cut-off read from the data, not from the text of the source: active = GI50 up to about 1.1 µM and inactive = higher.

What was measured:
Test in all cases: NCI anticancer screen, dose series, 48 h
NCI-H522 = system: NCI-H522
MOLT-4 = system: MOLT-4
HOP-62 = system: HOP-62
NCI-H23 = system: NCI-H23
SNB-19 = system: SNB-19
HCT-15 = system: HCT-15
SK-MEL-2 = system: SK-MEL-2
CCRF-CEM = system: CCRF-CEM
NCI-H226 = system: NCI-H226
MDA-MB-231 = system: MDA-MB-231
MCF7 = system: MCF7
KM12 = system: KM12
SNB-75 = system: SNB-75
ACHN = system: ACHN
EKVX = system: EKVX
HOP-92 = system: HOP-92
K562 = system: K562
U-251 = system: U-251
DU-145 = system: DU-145
RXF 393 = system: RXF 393

Row | SMILES | GI50 (NCI-H522) | GI50 (MOLT-4) | GI50 (HOP-62) | GI50 (NCI-H23) | GI50 (SNB-19) | GI50 (HCT-15) | GI50 (SK-MEL-2) | GI50 (CCRF-CEM) | GI50 (NCI-H226) | GI50 (MDA-MB-231) | GI50 (MCF7) | GI50 (KM12) | GI50 (SNB-75) | GI50 (ACHN) | GI50 (EKVX) | GI50 (HOP-92) | GI50 (K562) | GI50 (U-251) | GI50 (DU-145) | GI50 (RXF 393)
1 | c1nnc(NCNc2nncs2)s1 | 48.1 µM (inactive) | 29.6 µM (inactive) | 46.5 µM (inactive) | 47.9 µM (inactive) | > 100 µM (inactive) | 40.2 µM | 68.9 µM (inactive) | 61.1 µM (inactive) | > 100 µM (inactive) | 30.7 µM (inactive) | 38.5 µM (inactive) | 50.1 µM (inactive) | 30 µM (inactive) | 29.4 µM (inactive) | 23.3 µM (inactive) | > 100 µM (inactive) | 42.8 µM (inactive) | 50 µM (inactive) | 16 µM (inactive) | 29 µM (inactive)
2 | N/C(=N/c1ccc(O)cc1)S(=O)(=O)O | > 100 µM (inactive) | > 100 µM (inactive) | > 100 µM (inactive) | > 100 µM (inactive) | > 100 µM (inactive) | > 100 µM | > 100 µM (inactive) | > 100 µM (inactive) | > 100 µM (inactive) | > 100 µM (inactive) | > 100 µM (inactive) | > 100 µM (inactive) | > 100 µM (inactive) | > 100 µM (inactive) | > 100 µM (inactive) | > 100 µM (inactive) | > 100 µM (inactive) | > 100 µM (inactive) | > 100 µM (inactive) | > 100 µM (inactive)
3 | Cc1cc(N(CCC#N)CCC#N)ccc1/C=N/NC(=O)c1ccccc1 | 8.34 µM (inactive) | 24.3 µM (inactive) | 31.8 µM (inactive) | 25.2 µM (inactive) | > 59.2 µM (inactive) | 5.28 µM | 52.8 µM (inactive) | 23.1 µM (inactive) | 20.2 µM (inactive) | 15 µM (inactive) | 7.82 µM (inactive) | 3.54 µM (inactive) | 28.9 µM (inactive) | 85.3 µM (inactive) | 48.9 µM (inactive) | 76.4 µM (inactive) | 3.76 µM (inactive) | 22.5 µM (inactive) | 26.1 µM (inactive) | 28.4 µM (inactive)
4 | COc1nc2c(c(=O)n1C)N=C(c1ccc(Cl)cc1)CC(c1ccccc1)N2 (stereo not given) | 17.9 µM (inactive) | 17.6 µM (inactive) | 32.1 µM (inactive) | 25.2 µM (inactive) | 38.8 µM (inactive) | 15 µM | 18.7 µM (inactive) | 27.7 µM (inactive) | 16.1 µM (inactive) | 23.3 µM (inactive) | 14.8 µM (inactive) | 16.7 µM (inactive) | 14.3 µM (inactive) | 20.9 µM (inactive) | 21.5 µM (inactive) | 42.8 µM (inactive) | 6.78 µM (inactive) | 35.1 µM (inactive) | 33.3 µM (inactive) | 22.5 µM (inactive)
5 | C/C(CC(O)(C(F)(F)F)C(F)(F)F)=N\N | > 10 µM (inactive) | > 10 µM (inactive) | > 10 µM (inactive) | > 10 µM (inactive) | > 10 µM (inactive) | > 10 µM | > 10 µM (inactive) | > 10 µM (inactive) | > 10 µM (inactive) | > 10 µM (inactive) | > 10 µM (inactive) | > 10 µM (inactive) | > 10 µM (inactive) | > 10 µM (inactive) | > 10 µM (inactive) | > 10 µM (inactive) | > 10 µM (inactive) | > 10 µM (inactive) | > 10 µM (inactive) | > 10 µM (inactive)
6 | O=C1c2cccc3cc([N+](=O)[O-])cc(c23)C(=O)N1Nc1ccc([N+](=O)[O-])cc1[N+](=O)[O-] | 11.6 µM (inactive) | 1.97 µM (inactive) | 14 µM (inactive) | 17.9 µM (inactive) | 18.2 µM (inactive) | 14.5 µM | > 100 µM (inactive) | 1.85 µM (inactive) | 14.5 µM (inactive) | 16.8 µM (inactive) | 14.5 µM (inactive) | 14.6 µM (inactive) | 18.2 µM (inactive) | 0.557 µM (active) | 24.4 µM (inactive) | 17.9 µM (inactive) | 4.29 µM (inactive) | 13.3 µM (inactive) | 40.8 µM (inactive) | 23.3 µM (inactive)
7 | Cc1ccc(NC(=O)CC(=O)N2N=C(N(C)c3ccccc3)CC2c2ccccc2)cc1 (stereo not given) | > 100 µM (inactive) | > 100 µM (inactive) | > 100 µM (inactive) | > 100 µM (inactive) | > 100 µM (inactive) | > 100 µM | > 100 µM (inactive) | > 100 µM (inactive) | > 100 µM (inactive) | > 100 µM (inactive) | > 100 µM (inactive) | > 100 µM (inactive) | 25.4 µM (inactive) | > 100 µM (inactive) | > 100 µM (inactive) | > 100 µM (inactive) | > 100 µM (inactive) | > 100 µM (inactive) | > 100 µM (inactive) | > 100 µM (inactive)
8 | O=[N+]([O-])c1ccc2c(c1)nc(Cc1ccccc1)n2C[C@@H]1CCCN2CCCCC12 (stereo not given in full) | 21.6 µM (inactive) | 17.4 µM (inactive) | > 100 µM (inactive) | 27.5 µM (inactive) | 56.4 µM (inactive) | 36.9 µM | 20.9 µM (inactive) | 17.6 µM (inactive) | 89.9 µM (inactive) | 31.3 µM (inactive) | 41.1 µM (inactive) | 21.3 µM (inactive) | 63.5 µM (inactive) | 57.8 µM (inactive) | 17.1 µM (inactive) | 3.71 µM (inactive) | 18.7 µM (inactive) | 44.7 µM (inactive) | 60.5 µM (inactive) | 19.4 µM (inactive)
9 | COc1ccc2nc3cc(Cl)ccc3c(NCCCN(C)CCCNc3ccc4ncn5c6ccccc6c(=O)c3c45)c2c1 | 0.0264 µM (active) | 0.00264 µM (active) | 0.817 µM (active) | 1.18 µM (inactive) | 0.269 µM (active) | 0.0476 µM | 3.3 µM (inactive) | 0.228 µM (active) | 0.395 µM (active) | 0.108 µM (active) | 0.0525 µM (active) | 0.123 µM (active) | 2.38 µM (inactive) | 0.0102 µM (active) | 0.637 µM (active) | 3.26 µM (inactive) | 0.00383 µM (active) | 0.0478 µM (active) | 0.587 µM (active) | 0.0536 µM (active)
10 | C=C1C[C@@H]2O[C@H]3[C@H]4[C@@H](C[C@@H](C)[C@@H](OC(C)=O)[C@H]42)[C@@H](C)CO[C@@]3(C)[C@H](OC(=O)CCCCCCC)C[C@H]1O | 16.4 µM (inactive) | 22.9 µM (inactive) | 17.4 µM (inactive) | 19.8 µM (inactive) | 16.7 µM (inactive) | 15.8 µM | 20.3 µM (inactive) | 14.3 µM (inactive) | 10.5 µM (inactive) | 13.8 µM (inactive) | 21.4 µM (inactive) | 16.7 µM (inactive) | 16.7 µM (inactive) | 20.7 µM (inactive) | 13.9 µM (inactive) | 15.2 µM (inactive) | 22.9 µM (inactive) | 16.9 µM (inactive) | 14.9 µM (inactive) | 18.9 µM (inactive)
11 | Cc1c(O)nc(/C=C/C(=O)O)nc1C(=O)O | > 100 µM (inactive) | > 100 µM (inactive) | > 100 µM (inactive) | > 100 µM (inactive) | > 100 µM (inactive) | > 100 µM | > 100 µM (inactive) | > 100 µM (inactive) | > 100 µM (inactive) | > 100 µM (inactive) | > 100 µM (inactive) | > 100 µM (inactive) | > 100 µM (inactive) | > 100 µM (inactive) | > 100 µM (inactive) | > 100 µM (inactive) | > 100 µM (inactive) | > 100 µM (inactive) | > 100 µM (inactive) | > 100 µM (inactive)
12 | O=C(Cc1ccccc1F)NC1=C(Cl)C(=O)c2ccccc2C1=O | 0.29 µM (active) | 1.06 µM (active) | 5.48 µM (inactive) | 0.778 µM (active) | 2.84 µM (inactive) | 0.54 µM | 0.652 µM (active) | 0.428 µM (active) | 1.74 µM (inactive) | 2.69 µM (inactive) | 3.74 µM (inactive) | 0.524 µM (active) | 0.655 µM (active) | 0.543 µM (active) | 3.02 µM (inactive) | 0.887 µM (active) | 0.611 µM (active) | 0.65 µM (active) | 10.1 µM (inactive) | 0.249 µM (active)
13 | COc1cc2ccc(=O)oc2cc1O [SCOPOLETIN] | 67.8 µM (inactive) | 28.8 µM (inactive) | 134 µM (inactive) | 69 µM (inactive) | 44 µM (inactive) | 25.1 µM | 109 µM (inactive) | 30.4 µM (inactive) | 86.3 µM (inactive) | > 100 µM (inactive) | 118 µM (inactive) | 36.1 µM (inactive) | 50.8 µM (inactive) | > 100 µM (inactive) | 57.5 µM (inactive) | 206 µM (inactive) | 152 µM (inactive) | 24.8 µM (inactive) | > 100 µM (inactive) | 128 µM (inactive)
